Measured values reported in ChEMBL document CHEMBL1157753, “Stereochemical requirements for the mineralocorticoid receptor antagonist activity of dihydropyridines” (J Med Chem, 2010).

Experiments:
[1] = molecular target: T1, Mineralocorticoid receptor (Homo sapiens, UniProt P08235)
T1 sequence (P08235 whole entry): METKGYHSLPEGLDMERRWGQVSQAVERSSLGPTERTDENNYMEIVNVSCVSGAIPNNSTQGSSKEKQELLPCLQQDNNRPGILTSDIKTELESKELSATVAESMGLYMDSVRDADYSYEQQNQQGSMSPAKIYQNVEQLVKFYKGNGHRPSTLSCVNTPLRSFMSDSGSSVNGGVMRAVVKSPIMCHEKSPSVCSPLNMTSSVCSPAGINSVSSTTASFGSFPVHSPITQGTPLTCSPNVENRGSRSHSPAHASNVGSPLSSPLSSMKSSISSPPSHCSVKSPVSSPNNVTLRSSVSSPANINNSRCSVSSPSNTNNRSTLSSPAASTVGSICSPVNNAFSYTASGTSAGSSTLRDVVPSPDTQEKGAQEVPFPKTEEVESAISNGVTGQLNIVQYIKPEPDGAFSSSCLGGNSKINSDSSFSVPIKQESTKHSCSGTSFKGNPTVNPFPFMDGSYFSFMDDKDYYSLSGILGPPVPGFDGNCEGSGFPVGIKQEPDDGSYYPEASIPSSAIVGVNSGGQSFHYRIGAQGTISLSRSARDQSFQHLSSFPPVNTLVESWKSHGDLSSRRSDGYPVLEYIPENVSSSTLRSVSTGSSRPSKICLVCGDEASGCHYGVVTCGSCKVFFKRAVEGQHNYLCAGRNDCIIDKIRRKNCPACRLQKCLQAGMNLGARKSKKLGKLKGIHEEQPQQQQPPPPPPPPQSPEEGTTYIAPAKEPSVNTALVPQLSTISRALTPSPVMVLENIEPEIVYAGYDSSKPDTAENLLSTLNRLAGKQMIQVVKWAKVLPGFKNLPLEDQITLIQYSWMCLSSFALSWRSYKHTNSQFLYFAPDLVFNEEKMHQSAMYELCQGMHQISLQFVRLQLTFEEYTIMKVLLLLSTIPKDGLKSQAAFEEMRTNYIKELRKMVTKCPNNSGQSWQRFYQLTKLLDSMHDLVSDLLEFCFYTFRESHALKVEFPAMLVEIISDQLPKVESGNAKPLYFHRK
Description: Antagonist activity at Gal4-fused mineralocorticoid receptor expressed in human HuH7 cells assessed as inhibition of aldosterone-induced receptor activation by luciferase reporter gene assay

[2] = molecular target: Voltage-gated L-type calcium channel (Rattus norvegicus, UniProt P22002+Q02485+P27732); assay: Inhibition of L-type calcium channel in rat A10 cells assessed as inhibition of depolarization-induced increase in calcium flux after 10 mins by FLIPR assay
[3] = molecular target: T2, Glucocorticoid receptor (Homo sapiens, UniProt P04150); assay: Inhibition of glucocorticoid receptor
T2 sequence (P04150 whole entry): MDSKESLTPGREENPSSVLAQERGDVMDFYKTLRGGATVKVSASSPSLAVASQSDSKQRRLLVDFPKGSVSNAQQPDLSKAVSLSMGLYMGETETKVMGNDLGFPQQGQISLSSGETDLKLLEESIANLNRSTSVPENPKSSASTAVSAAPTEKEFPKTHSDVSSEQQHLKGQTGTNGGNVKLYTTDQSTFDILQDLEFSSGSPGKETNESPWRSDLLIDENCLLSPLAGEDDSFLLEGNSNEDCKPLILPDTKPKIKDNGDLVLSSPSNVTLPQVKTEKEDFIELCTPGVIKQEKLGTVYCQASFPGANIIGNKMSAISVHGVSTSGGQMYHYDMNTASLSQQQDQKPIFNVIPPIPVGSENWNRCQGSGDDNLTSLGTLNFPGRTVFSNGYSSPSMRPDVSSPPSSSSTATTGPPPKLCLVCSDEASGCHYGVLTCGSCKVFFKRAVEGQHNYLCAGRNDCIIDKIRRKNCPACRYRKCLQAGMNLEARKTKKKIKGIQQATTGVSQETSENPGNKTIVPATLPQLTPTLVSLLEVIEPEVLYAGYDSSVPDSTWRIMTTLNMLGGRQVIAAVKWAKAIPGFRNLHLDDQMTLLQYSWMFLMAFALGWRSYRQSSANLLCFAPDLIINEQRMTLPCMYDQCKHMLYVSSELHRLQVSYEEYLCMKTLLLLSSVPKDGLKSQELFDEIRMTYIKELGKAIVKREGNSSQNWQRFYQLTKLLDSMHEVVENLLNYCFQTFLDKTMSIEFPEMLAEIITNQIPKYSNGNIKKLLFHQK

[4] = molecular target: T3, Androgen receptor (Homo sapiens, UniProt P10275); assay: Inhibition of androgen receptor
T3 sequence (P10275 whole entry): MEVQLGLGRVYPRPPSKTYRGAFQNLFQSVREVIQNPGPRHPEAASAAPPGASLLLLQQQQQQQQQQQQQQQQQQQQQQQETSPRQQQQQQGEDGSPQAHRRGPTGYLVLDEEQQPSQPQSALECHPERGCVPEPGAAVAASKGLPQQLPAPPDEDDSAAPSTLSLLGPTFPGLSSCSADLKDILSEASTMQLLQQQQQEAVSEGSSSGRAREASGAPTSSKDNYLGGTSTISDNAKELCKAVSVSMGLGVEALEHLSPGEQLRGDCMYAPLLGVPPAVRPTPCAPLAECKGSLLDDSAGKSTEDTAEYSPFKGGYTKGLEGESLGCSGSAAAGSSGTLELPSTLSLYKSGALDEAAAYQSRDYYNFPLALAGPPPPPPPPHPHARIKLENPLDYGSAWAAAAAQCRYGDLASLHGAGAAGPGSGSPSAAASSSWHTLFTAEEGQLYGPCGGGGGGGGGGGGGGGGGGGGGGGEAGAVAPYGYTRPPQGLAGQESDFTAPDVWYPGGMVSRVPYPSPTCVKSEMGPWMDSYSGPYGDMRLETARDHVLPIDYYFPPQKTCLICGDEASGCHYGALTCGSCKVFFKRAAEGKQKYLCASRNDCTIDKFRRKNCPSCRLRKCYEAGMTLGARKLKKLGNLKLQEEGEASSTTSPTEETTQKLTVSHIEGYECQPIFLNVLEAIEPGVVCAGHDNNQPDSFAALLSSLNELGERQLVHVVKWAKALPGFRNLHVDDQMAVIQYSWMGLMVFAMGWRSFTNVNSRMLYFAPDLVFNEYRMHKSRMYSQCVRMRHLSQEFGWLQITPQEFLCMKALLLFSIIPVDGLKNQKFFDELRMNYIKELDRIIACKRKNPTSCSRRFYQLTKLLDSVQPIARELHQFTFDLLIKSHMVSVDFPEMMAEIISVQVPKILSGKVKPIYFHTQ

[5] = molecular target: T4, Progesterone receptor (Homo sapiens, UniProt P06401); assay: Inhibition of progesterone receptor
T4 sequence (P06401 whole entry): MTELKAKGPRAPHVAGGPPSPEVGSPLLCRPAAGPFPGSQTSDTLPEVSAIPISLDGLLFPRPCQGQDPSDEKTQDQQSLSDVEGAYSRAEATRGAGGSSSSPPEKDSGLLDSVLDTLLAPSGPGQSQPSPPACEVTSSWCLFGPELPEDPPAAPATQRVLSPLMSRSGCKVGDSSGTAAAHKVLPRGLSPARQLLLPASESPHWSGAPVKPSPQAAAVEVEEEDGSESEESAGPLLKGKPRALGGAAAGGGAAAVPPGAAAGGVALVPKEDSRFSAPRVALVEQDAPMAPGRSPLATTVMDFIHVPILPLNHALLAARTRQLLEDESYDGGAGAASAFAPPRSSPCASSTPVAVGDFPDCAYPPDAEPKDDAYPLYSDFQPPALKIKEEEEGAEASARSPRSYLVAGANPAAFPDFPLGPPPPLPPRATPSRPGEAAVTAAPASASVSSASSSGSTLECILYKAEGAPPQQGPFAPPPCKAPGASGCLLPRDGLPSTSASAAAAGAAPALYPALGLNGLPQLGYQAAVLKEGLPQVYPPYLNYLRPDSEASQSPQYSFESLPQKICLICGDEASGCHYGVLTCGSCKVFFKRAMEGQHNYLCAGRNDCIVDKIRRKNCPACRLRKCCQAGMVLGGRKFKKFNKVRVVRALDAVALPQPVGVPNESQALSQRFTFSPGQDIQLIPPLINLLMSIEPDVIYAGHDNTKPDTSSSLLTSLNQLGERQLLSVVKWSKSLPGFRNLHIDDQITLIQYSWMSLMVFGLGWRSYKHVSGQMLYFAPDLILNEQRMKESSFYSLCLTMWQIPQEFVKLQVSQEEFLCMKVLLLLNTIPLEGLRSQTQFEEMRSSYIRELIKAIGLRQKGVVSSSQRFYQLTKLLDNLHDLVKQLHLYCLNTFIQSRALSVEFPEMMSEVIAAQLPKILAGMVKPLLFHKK

[6] = molecular target: T5, Estrogen receptor (Homo sapiens, UniProt P03372); assay: Inhibition of estrogen receptor
T5 sequence (P03372 whole entry): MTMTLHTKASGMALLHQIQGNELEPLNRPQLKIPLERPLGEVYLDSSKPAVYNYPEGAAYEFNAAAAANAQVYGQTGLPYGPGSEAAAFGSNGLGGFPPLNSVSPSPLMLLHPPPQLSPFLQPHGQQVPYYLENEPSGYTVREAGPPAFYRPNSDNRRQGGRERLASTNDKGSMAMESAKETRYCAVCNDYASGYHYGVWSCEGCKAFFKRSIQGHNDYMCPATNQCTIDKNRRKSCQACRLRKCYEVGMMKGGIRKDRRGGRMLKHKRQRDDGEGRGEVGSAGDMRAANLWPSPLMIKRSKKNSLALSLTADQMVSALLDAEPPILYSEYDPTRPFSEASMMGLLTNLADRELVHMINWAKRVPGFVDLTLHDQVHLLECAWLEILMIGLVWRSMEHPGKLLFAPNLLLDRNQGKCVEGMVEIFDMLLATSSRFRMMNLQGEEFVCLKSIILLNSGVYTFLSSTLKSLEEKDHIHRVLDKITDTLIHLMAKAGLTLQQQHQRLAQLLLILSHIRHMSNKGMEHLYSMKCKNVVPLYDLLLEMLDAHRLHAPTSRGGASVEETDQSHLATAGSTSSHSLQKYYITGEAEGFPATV

[7] = Clearance in Sprague-Dawley rat at 2 mg/kg, iv by LC/MS/MS analysis; type: ADME, organism-based; design: dose 2 mg/kg, route intravenous; conditions: in vivo
[8] = (§1) Half life in Sprague-Dawley rat at 2 mg/kg, iv by LC/MS/MS analysis; type: ADME, organism-based; design: dose 2 mg/kg, route intravenous; conditions: Sprague-Dawley, in vivo
[9] = Volume of distribution at steady state in Sprague-Dawley rat at 2 mg/kg, iv by LC/MS/MS analysis; type: ADME, organism-based; design: dose 2 mg/kg, route intravenous; conditions: in vivo, read-out: Vdss
[10] = tested on: Rattus norvegicus; assay: as §1; type: ADME, organism-based; design: dose 2 mg/kg, route intravenous; conditions: in vivo

SMILES	IC50 [1] [nM]	IC50 [2] [nM]	further results
COC(=O)C1=C(C)NC(C)=C(C(=O)OC(C)(C)C)C1c1cccc([N+](=O)[O-])c1 (racemic) [MEBUDIPINE]	126	> 20	
COC(=O)C1=C(C)NC(C)=C(C(=O)OC(C)(C)C)[C@@H]1c1cccc([N+](=O)[O-])c1	46	607	IC50 [3]: 3260 nM; IC50 [4]: 1270 nM; IC50 [5]: 768 nM
COC(=O)C1=C(C)NC(C)=C(C(=O)OC(C)(C)C)[C@H]1c1cccc([N+](=O)[O-])c1	536	> 0.5	
COC(=O)C1=C(CCl)NC(C)=C(C#N)[C@@H]1c1ccc(F)cc1Cl	2200	570	
CC1=C(C#N)C(c2ccc(F)cc2Cl)C(C(=O)OC(C)(C)C)=C(C)N1 (racemic)	59	> 1550	
CCCC1=C(C(=O)OCC)[C@H](c2ccnc3ccccc23)C(C#N)=C(C)N1	10	2200	IC50 [3]: 270 nM; IC50 [4]: 730 nM; IC50 [5]: 1340 nM; IC50 [6]: > 10000 nM; clearance [7]: 9.7 mL/min/kg; half-life [8]: 6.54 h; Vd [9]: 0.42 L/kg
COC(=O)[C@@H]1CC2=CC(=O)CC[C@]2(C)[C@@]23O[C@@H]2C[C@@]2(C)[C@@H](CC[C@@]24CCC(=O)O4)[C@H]13 [EPLERENONE]		> 5000	

More lines, in order of falling IC50 [1], values ahead:

IC50 [1] [nM]	IC50 [2] [nM]	SMILES	further results
3520	3840	CC1=C(C#N)[C@H](c2ccc(F)cc2Cl)C(C(=O)OC(C)(C)C)=C(C)N1	
3280	1330	CCCC1=C(C(=O)OCC)[C@@H](c2ccnc3ccccc23)C(C#N)=C(C)N1	
2800	11270	COC(=O)C1=C(CCl)NC(C)=C(C#N)[C@@H]1c1ccnc2ccccc12	
469	14570	COC(=O)C1=C(C)NC(C)=C(C#N)[C@@H]1c1ccnc2ccccc12	
340	7930	COC(=O)C1=C(CCl)NC(C)=C(C#N)[C@H]1c1ccnc2ccccc12	
77	7730	COC(=O)C1=C(C)NC(C)=C(C#N)[C@H]1c1ccnc2ccccc12	
41	2070	COC(=O)C1=C(CCl)NC(C)=C(C#N)[C@H]1c1ccc(F)cc1Cl	
31	1100	CCCC1=C(C(=O)OCC)C(c2ccnc3ccccc23)C(C#N)=C(C)N1 (racemic)	
3.7		CC1=C(C#N)[C@@H](c2ccc(F)cc2Cl)C(C(=O)OC(C)(C)C)=C(C)N1	IC50 [3]: 1370 nM; IC50 [4]: 246 nM; IC50 [5]: 3520 nM; IC50 [6]: > 10000 nM; t1/2 [10]: 1.14 h
